Experimental data reported in patent publication US20220193202A1, “PARATHYROID HORMONE DERIVATIVE IN DIMERIC FORM OF PARATHYROID HORMONE FRAGMENT AND PHARMACEUTICAL COMPOSITION FOR PREVENTION OR TREATMENT OF BONE DISEASES COMPRISING SAME” (GACHON UNIVERSITY OF INDUSTRY-ACADEMIC COOPERATION …, priority 2019, published 2022).

Legend:
Format in all cases: in vivo, C57BL6 male mice
fracture animal model [1] = assay: IVIS imaging of fracture site in fracture animal model; settings: 100 μg/kg subcutaneously daily Day 1 to Day 13 after fracture surgery; imaged Day 4, 7, 11, 14
Protocol: Five 10-week-old C57BL6 male mice were prepared for each group, and fracture model surgery was performed in the following manner (see FIG. 3). In particular, 9 days before (-D9) and 6 days before (-D6) prior to fracture model surgery (DO) in mice of each group, infrared fluorescent dyes (IR Dyes, Infra-Red dyes) were administered through a tail vein of the mice. Then, the mice were general anesthetized using isoflurane containing oxygen (O2) for fracture model surgery, and a left hind limb was shaved and sterilized for surgery. An incision of about 15 mm was made in the left hind limb in the longitudinal direction, and the tibia was exposed by obtuse-angled resection of the muscle. Then, transverse osteotomy was performed using disc-shaped dental steel bars at the midpoint of the tibia. After repositioning the fracture site, the entire length of a bone marrow lumen was made internally stabilized. […] On Day 4, Day 7, Day 11, and Day 14 after the surgery, fracture sites of mice per each group were photographed and analyzed using IVIS Lumina XR (Caliper Life Sciences, USA) equipment and Living Image software. The results as shown in FIG. 4 confirmed that when the dimeric [[…]]PTH(1-34) was administered, an intensity of fluorescence was increased at the site where the fracture was healing. […] Therefore, intensifying of the fluorescence means that bone formation increased.

fracture animal model [2] = assay: 3D-micro CT of tibia including fracture site (callus formation); settings: 100 μg/kg subcutaneously daily Day 1 to Day 13; tibia collected Day 14
Protocol: Five 10-week-old C57BL6 male mice were prepared for each group, and fracture model surgery was performed in the following manner (see FIG. 3). In particular, 9 days before (-D9) and 6 days before (-D6) prior to fracture model surgery (DO) in mice of each group, infrared fluorescent dyes (IR Dyes, Infra-Red dyes) were administered through a tail vein of the mice. Then, the mice were general anesthetized using isoflurane containing oxygen (O2) for fracture model surgery, and a left hind limb was shaved and sterilized for surgery. An incision of about 15 mm was made in the left hind limb in the longitudinal direction, and the tibia was exposed by obtuse-angled resection of the muscle. Then, transverse osteotomy was performed using disc-shaped dental steel bars at the midpoint of the tibia. After repositioning the fracture site, the entire length of a bone marrow lumen was made internally stabilized. After washing it with saline, the skin was sutured with nylon sutures. In particular, the fracture animal models prepared in Example 2 was divided into a control group, PTH(1-34), monomeric [[…]]PTH(1-34), and dimeric [[…]]PTH(1-34) administration groups (n=5 animals per group). […] The collected shin bones were imaged and analyzed using 3D-micro CT (Microfocus X-ray CT system SMX-90CT, Shimadzu, Japan) equipment.

[3] = test system: trabecular bones of the femurs; assay: micro-CT of femur of opposite limb (trabecular bone formation); settings: 100 μg/kg subcutaneously daily Day 1 to Day 13, Day 14, compared with control, PTH(1-34) and monomeric [Cys25]PTH(1-34) groups
Protocol: Five 10-week-old C57BL6 male mice were prepared for each group, and fracture model surgery was performed in the following manner (see FIG. 3). In particular, 9 days before (-D9) and 6 days before (-D6) prior to fracture model surgery (DO) in mice of each group, infrared fluorescent dyes (IR Dyes, Infra-Red dyes) were administered through a tail vein of the mice. Then, the mice were general anesthetized using isoflurane containing oxygen (O2) for fracture model surgery, and a left hind limb was shaved and sterilized for surgery. An incision of about 15 mm was made in the left hind limb in the longitudinal direction, and the tibia was exposed by obtuse-angled resection of the muscle. Then, transverse osteotomy was performed using disc-shaped dental steel bars at the midpoint of the tibia. After repositioning the fracture site, the entire length of a bone marrow lumen was made internally stabilized. After washing it with saline, the skin was sutured with nylon sutures. In particular, the fracture animal models prepared in Example 2 was divided into a control group, PTH(1-34), monomeric [[…]]PTH(1-34), and dimeric [[…]]PTH(1-34) administration groups (n=5 animals per group). […] In addition, the femurs of an opposite limb of the animal models were collected and analyzed by micro-CT equipment to evaluate the degree of bone formation in the trabecular bones of the femurs.

dimeric [Cys25]PTH(1-34): Dimeric form of parathyroid hormone fragment PTH(1-34) with Arg25 substituted by Cys (SEQ ID NO: 1), disulfide bond between cysteines
bone formation, average of photon flux (FIG. 5) (fracture animal model [1]): significantly increased | intensity of fluorescence at the site where the fracture was healing (IVIS imaging, FIG. 4) (fracture animal model [1]): increased | callus formation (3D-micro CT, FIG. 6) (fracture animal model [2]): promoted | callus volume (FIG. 7) (fracture animal model [2]): notably increased | bone formation in the trabecular bones of the femurs (micro-CT, FIG. 8) [3]: greatest increase
